Laboratory results reported in patent US11866405B2, “Substituted indazoles as IRAK4 inhibitors” (AstraZeneca AB, priority 2020, dated 2024).

Legend:
[1] = molecular target: human recombinant IRAK4 protein (Homo sapiens (Human), UniProt Q9NWZ3); experiment: IRAK4 enzyme assay (mass spectrometry readout); assay type: biochemical; conditions: 3 mM ATP, 0.2 nM enzyme; geometric mean of at least n=2, * single experiment
How it was run: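 0.2 nM IRAK4 preincubated 15 min at room temperature with compound (10-point half-log series, top 1 μM or 10 μM) in pH 7.4 Tris buffer with 3 mM ATP; 10 μM peptide substrate added, 2 h at room temperature, formic acid stop. Phospho/unphospho peptide ratio by LC-MS/MS; potency from curve fit, geometric mean of n≥2 or single run.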

[2] = molecular target: IRAK4 auto-phosphorylation (Homo sapiens (Human), UniProt Q9NWZ3); experiment: IRAK4 phosphorylation cell assay in IL-1β-stimulated Karpas-299 cells; assay type: cell-based; conditions: IL-1β 22.7 ng/mL, pIRAK4 (Thr345/Ser346), geometric mean of at least 2 experiments
IRAK4 auto-phosphorylation, sequence (Q9NWZ3 whole entry): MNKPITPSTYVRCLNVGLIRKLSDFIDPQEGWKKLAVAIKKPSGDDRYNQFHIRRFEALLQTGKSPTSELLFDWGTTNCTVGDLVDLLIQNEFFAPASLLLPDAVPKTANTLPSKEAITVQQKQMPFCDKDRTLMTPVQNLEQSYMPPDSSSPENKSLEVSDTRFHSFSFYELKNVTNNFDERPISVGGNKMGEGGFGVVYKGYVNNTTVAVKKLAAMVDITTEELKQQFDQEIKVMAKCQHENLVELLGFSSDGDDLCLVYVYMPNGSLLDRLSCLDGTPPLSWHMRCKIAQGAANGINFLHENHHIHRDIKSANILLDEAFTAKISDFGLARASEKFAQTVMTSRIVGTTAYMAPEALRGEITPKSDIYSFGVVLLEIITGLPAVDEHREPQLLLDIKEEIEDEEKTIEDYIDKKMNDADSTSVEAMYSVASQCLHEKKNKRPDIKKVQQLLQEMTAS
How it was run: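 Karpas-299 cells were preincubated 1 h at 37 °C with compound (10-point half-log series, top 30 μM), then stimulated 10 min with 22.7 ng/mL IL-1β. Cells were fixed and stained for pIRAK4 (Thr345/Ser346), and per-cell fluorescence was quantified by high-content imaging. IC50 values are geometric means of at least 2 experiments.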

[3] = tested on: IL-1β stimulated IL-8 release in hTHP1 cells; experiment: IL-1β-induced IL-8 release in human THP-1 monocyte cell line; assay type: cell-based; conditions: Homo sapiens, THP-1, 18 h, THP-1 cells, IL-1β 1.8 ng/mL, geometric mean of at least n=2, * n = 1, read-out: hTHP1, IL1β stim, IL8 release red. IC50
Method: Effect of IRAK4 Inhibitors on IL-1β-Induced Cytokine Release in Human THP-1 Monocyte Cell Line
THP-1 cells were cultured in RPMI 1640 (Gibco 72400-021) containing 10% FBS (Gibco 10270-106), 1 mM Na-pyruvate (Gibco 11360-070) and 100 U/mL Penicillin-Streptomycin (Gibco 15140-122). Cells were plated at 5×10^4 cells per well in 384 well Echo certified plates (Labcyte PPT-0200) to which compounds had been added at various concentrations (10 point half log dose response with a final top concentration of 10 μM) using an Echo 655 (Labcyte Inc). The plate was incubated for 1 h at 37° C., then recombinant […] (R&D Systems 201-LB-025/CF) was added to a final concentration of 1.8 ng/mL. The plates were incubated at 37° C. for 18h. The plates were centrifuged at 250×g for four minutes, then 1.6 μL of the cell supernatant was transferred to a white low volume 384 well plate (Greiner #784075) using acoustic dispensing on an Echo 655. Next, 200 nL of acceptor bead (5 mg/mL) and biotinylated anti-IL-8 antibody (500 nM) was added using acoustic dispensing (beads and antibody were from a PerkinElmer 18 Alpha LISA detection kit, AL224C). The plate was sealed, briefly centrifuged, then incubated at room temperature for 1 h. Afterwards, 200 nL of donor bead solution (5 mg/mL) was added, the plate sealed and briefly centrifuged, then incubated for 1 h before being read on an Envision plate reader to allow determination the concentration of IRAK4 inhibitor required to effect a 50% reduction in the amount of IL-8 released following IL-1β stimulation in THP1 cells (Table 2). The quantified data were analysed in Genedata Screener 15 (Genedata AG). Data presented are the geometric mean of at least n=2, or as denoted by an * are obtained from a single experiment.

human recombinant IRAK4 protein, sequence (Q9NWZ3 whole entry): as above

SMILES | IC50 [1] [nM] | IC50 [2] [nM] | IC50 [3] [nM]
O=C(Nc1cnn2cccnc12)c1cc2cn([C@H]3CC[C@H](O)CC3)nc2cc1OC1CC1 [Example 57, 6-Cyclopropoxy-2-((1r,4r)-4-hydroxycyclohexyl)-N-(pyrazolo[1,5-a]pyrimidin-3-yl)-2H-indazole-5-carboxamide] | 0.8 | 60 | 35
COc1cc2nn([C@H]3CC[C@@]4(CC3)CC(=O)N(C)C4)cc2cc1C(=O)Nc1cnc2cccnn12 [Example 68, N-(Imidazo[1,2-b]pyridazin-3-yl)-6-methoxy-2-((5s,8s)-2-methyl-3-oxo-2-azaspiro[4.5]decan-8-yl)-2H-indazole-5-carboxamide] | 1.6 | 53 | 84
COc1cc2nn([C@H]3CC[C@]4(CC3)CC(=O)N(C)C4)cc2cc1C(=O)Nc1cnc2cccnn12 [Example 69, N-(Imidazo[1,2-b]pyridazin-3-yl)-6-methoxy-2-((5r,8r)-2-methyl-3-oxo-2-azaspiro[4.5]decan-8-yl)-2H-indazole-5-carboxamide] | 0.5 | 22 | 15
COc1cc2nn([C@H]3CC[C@]4(CC3)CC(=O)N(C)C4)cc2cc1C(=O)Nc1cnn2cccnc12 [Example 86, 6-methoxy-2-((5r,8r)-2-methyl-3-oxo-2-azaspiro[4.5]decan-8-yl)-N-(pyrazolo[1,5-a]pyrimidin-3-yl)-2H-indazole-5-carboxamide] | 1.9 | 36 | 31
COc1cc2nn([C@H]3CC[C@H](O)C[C@@H]3C)cc2cc1C(=O)Nc1cnc2cccnn12 [Example 91, 2-((1S,2S,4S)-4-hydroxy-2-methylcyclohexyl)-N-(imidazo[1,2-b]pyridazin-3-yl)-6-methoxy-2H-indazole-5-carboxamide] | 2.3 | 88 | 49
COc1cc2nn([C@@H]3CC[C@](C)(O)C[C@H]3C)cc2cc1C(=O)Nc1cnc2cccnn12 [Example 92, 2-((1R,2R,4S)-4-hydroxy-2,4-dimethylcyclohexyl)-N-(imidazo[1,2-b]pyridazin-3-yl)-6-methoxy-2H-indazole-5-carboxamide] | 1.6 | 30 | 28
COc1cc2nn([C@@H]3CC[C@@](C)(O)C[C@H]3C)cc2cc1C(=O)Nc1cnc2cccnn12 [Example 93, 2-((1R,2R,4R)-4-hydroxy-2,4-dimethylcyclohexyl)-N-(imidazo[1,2-b]pyridazin-3-yl)-6-methoxy-2H-indazole-5-carboxamide] | 0.4 | 8 | 30
